Numbers after ± are expanded uncertainties.
Experiment: xn = mol fraction of the nth substance listed
Conditions: Liquid, Vibrating tube method

With `CCCCCCCCCC` [decane] + CCCCCCC the mass density (343.09 K, 1000 kPa, x2 = 0.0531) was 690.42 ± 0.41 kg/m3, the mass density (343.09 K, 1000 kPa, x2 = 0.5219) was 670.9 ± 0.42 kg/m3 and the mass density (343.09 K, 1000 kPa, x2 = 0.777) was 656.56 ± 0.43 kg/m3. It also gave a mass density (343.09 K, 2000 kPa, x2 = 0.0531) of 691.49 ± 0.42 kg/m3, a mass density (343.09 K, 2000 kPa, x2 = 0.5219) of 672.01 ± 0.43 kg/m3 and a mass density (343.09 K, 2000 kPa, x2 = 0.777) of 657.76 ± 0.43 kg/m3. The mass density (343.09 K, 3000 kPa, x2 = 0.0531) was 692.55 ± 0.42 kg/m3, the mass density (343.09 K, 3000 kPa, x2 = 0.5219) was 673.08 ± 0.43 kg/m3 and the mass density (343.09 K, 3000 kPa, x2 = 0.777) was 658.95 ± 0.44 kg/m3. For the same molecule, the mass density (343.09 K, 4000 kPa, x2 = 0.0531) was 693.59 ± 0.43 kg/m3, the mass density (343.09 K, 4000 kPa, x2 = 0.5219) was 674.15 ± 0.44 kg/m3 and the mass density (343.09 K, 4000 kPa, x2 = 0.777) was 660.13 ± 0.45 kg/m3. It also gave a mass density (343.09 K, 5000 kPa, x2 = 0.0531) of 694.62 ± 0.43 kg/m3, a mass density (343.09 K, 5000 kPa, x2 = 0.5219) of 675.24 ± 0.44 kg/m3 and a mass density (343.09 K, 5000 kPa, x2 = 0.777) of 661.28 ± 0.45 kg/m3. It also gave a mass density (343.09 K, 6000 kPa, x2 = 0.0531) of 695.63 ± 0.44 kg/m3, a mass density (343.09 K, 6000 kPa, x2 = 0.5219) of 676.3 ± 0.45 kg/m3 and a mass density (343.09 K, 6000 kPa, x2 = 0.777) of 662.42 ± 0.46 kg/m3. It also gave a mass density (343.09 K, 7000 kPa, x2 = 0.0531) of 696.62 ± 0.44 kg/m3, a mass density (343.09 K, 7000 kPa, x2 = 0.5219) of 677.39 ± 0.45 kg/m3 and a mass density (343.09 K, 7000 kPa, x2 = 0.777) of 663.56 ± 0.46 kg/m3. It also gave a mass density (343.09 K, 8000 kPa, x2 = 0.0531) of 697.6 ± 0.45 kg/m3, a mass density (343.09 K, 8000 kPa, x2 = 0.5219) of 678.46 ± 0.46 kg/m3 and a mass density (343.09 K, 8000 kPa, x2 = 0.777) of 664.71 ± 0.47 kg/m3. The mass density (343.09 K, 9000 kPa, x2 = 0.0531) was 698.57 ± 0.45 kg/m3, the mass density (343.09 K, 9000 kPa, x2 = 0.5219) was 679.53 ± 0.47 kg/m3 and the mass density (343.09 K, 9000 kPa, x2 = 0.777) was 665.84 ± 0.48 kg/m3. It also gave a mass density (343.09 K, 10000 kPa, x2 = 0.0531) of 699.52 ± 0.46 kg/m3, a mass density (343.09 K, 10000 kPa, x2 = 0.5219) of 680.57 ± 0.47 kg/m3 and a mass density (343.09 K, 10000 kPa, x2 = 0.777) of 666.95 ± 0.48 kg/m3. For the same molecule, the mass density (343.09 K, 11000 kPa, x2 = 0.0531) was 700.46 ± 0.46 kg/m3, the mass density (343.09 K, 11000 kPa, x2 = 0.5219) was 681.55 ± 0.48 kg/m3 and the mass density (343.09 K, 11000 kPa, x2 = 0.777) was 668.04 ± 0.49 kg/m3. The mass density (343.09 K, 12000 kPa, x2 = 0.0531) was 701.38 ± 0.47 kg/m3, the mass density (343.09 K, 12000 kPa, x2 = 0.5219) was 682.56 ± 0.48 kg/m3 and the mass density (343.09 K, 12000 kPa, x2 = 0.777) was 669.13 ± 0.5 kg/m3. For the same molecule, the mass density (343.09 K, 13000 kPa, x2 = 0.0531) was 702.3 ± 0.47 kg/m3, the mass density (343.09 K, 13000 kPa, x2 = 0.5219) was 683.57 ± 0.49 kg/m3 and the mass density (343.09 K, 13000 kPa, x2 = 0.777) was 670.2 ± 0.5 kg/m3. It also gave a mass density (343.09 K, 14000 kPa, x2 = 0.0531) of 703.21 ± 0.48 kg/m3, a mass density (343.09 K, 14000 kPa, x2 = 0.5219) of 684.56 ± 0.5 kg/m3 and a mass density (343.09 K, 14000 kPa, x2 = 0.777) of 671.24 ± 0.51 kg/m3. It also gave a mass density (343.09 K, 15000 kPa, x2 = 0.0531) of 704.09 ± 0.49 kg/m3, a mass density (343.09 K, 15000 kPa, x2 = 0.5219) of 685.54 ± 0.5 kg/m3 and a mass density (343.09 K, 15000 kPa, x2 = 0.777) of 672.27 ± 0.52 kg/m3. The mass density (343.09 K, 16000 kPa, x2 = 0.0531) was 704.98 ± 0.49 kg/m3, the mass density (343.09 K, 16000 kPa, x2 = 0.5219) was 686.5 ± 0.51 kg/m3 and the mass density (343.09 K, 16000 kPa, x2 = 0.777) was 673.29 ± 0.53 kg/m3. The mass density (343.09 K, 17000 kPa, x2 = 0.0531) was 705.84 ± 0.5 kg/m3, the mass density (343.09 K, 17000 kPa, x2 = 0.5219) was 687.45 ± 0.52 kg/m3 and the mass density (343.09 K, 17000 kPa, x2 = 0.777) was 674.28 ± 0.53 kg/m3. The mass density (343.09 K, 18000 kPa, x2 = 0.0531) was 706.7 ± 0.5 kg/m3, the mass density (343.09 K, 18000 kPa, x2 = 0.5219) was 688.39 ± 0.52 kg/m3 and the mass density (343.09 K, 18000 kPa, x2 = 0.777) was 675.26 ± 0.54 kg/m3. It also gave a mass density (343.09 K, 19000 kPa, x2 = 0.0531) of 707.54 ± 0.51 kg/m3, a mass density (343.09 K, 19000 kPa, x2 = 0.5219) of 689.28 ± 0.53 kg/m3 and a mass density (343.09 K, 19000 kPa, x2 = 0.777) of 676.22 ± 0.55 kg/m3. For the same molecule, the mass density (343.09 K, 20000 kPa, x2 = 0.0531) was 708.37 ± 0.52 kg/m3, the mass density (343.09 K, 20000 kPa, x2 = 0.5219) was 690.16 ± 0.54 kg/m3 and the mass density (343.09 K, 20000 kPa, x2 = 0.777) was 677.14 ± 0.55 kg/m3. The mass density (343.09 K, 21000 kPa, x2 = 0.0531) was 709.2 ± 0.52 kg/m3, the mass density (343.09 K, 21000 kPa, x2 = 0.5219) was 691.02 ± 0.55 kg/m3 and the mass density (343.09 K, 21000 kPa, x2 = 0.777) was 678.06 ± 0.56 kg/m3. For the same molecule, the mass density (343.09 K, 22000 kPa, x2 = 0.0531) was 710 ± 0.53 kg/m3, the mass density (343.09 K, 22000 kPa, x2 = 0.5219) was 691.87 ± 0.55 kg/m3 and the mass density (343.09 K, 22000 kPa, x2 = 0.777) was 678.95 ± 0.57 kg/m3. It also gave a mass density (343.09 K, 23000 kPa, x2 = 0.0531) of 710.8 ± 0.54 kg/m3, a mass density (343.09 K, 23000 kPa, x2 = 0.5219) of 692.69 ± 0.56 kg/m3 and a mass density (343.09 K, 23000 kPa, x2 = 0.777) of 679.82 ± 0.58 kg/m3. The mass density (343.09 K, 24000 kPa, x2 = 0.0531) was 711.58 ± 0.54 kg/m3, the mass density (343.09 K, 24000 kPa, x2 = 0.5219) was 693.49 ± 0.57 kg/m3 and the mass density (343.09 K, 24000 kPa, x2 = 0.777) was 680.67 ± 0.59 kg/m3. For the same molecule, the mass density (343.09 K, 25000 kPa, x2 = 0.0531) was 712.36 ± 0.55 kg/m3, the mass density (343.09 K, 25000 kPa, x2 = 0.5219) was 694.29 ± 0.57 kg/m3 and the mass density (343.09 K, 25000 kPa, x2 = 0.777) was 681.49 ± 0.59 kg/m3. The mass density (343.11 K, 1000 kPa, x2 = 0.2594) was 682.79 ± 0.42 kg/m3, the mass density (343.11 K, 1000 kPa, x2 = 0.952) was 645.16 ± 0.43 kg/m3 and the mass density (343.11 K, 2000 kPa, x2 = 0.2594) was 683.83 ± 0.42 kg/m3. The mass density (343.11 K, 2000 kPa, x2 = 0.952) was 646.47 ± 0.44 kg/m3, the mass density (343.11 K, 3000 kPa, x2 = 0.2594) was 684.89 ± 0.43 kg/m3 and the mass density (343.11 K, 3000 kPa, x2 = 0.952) was 647.73 ± 0.45 kg/m3. It also gave a mass density (343.11 K, 4000 kPa, x2 = 0.2594) of 685.87 ± 0.43 kg/m3, a mass density (343.11 K, 4000 kPa, x2 = 0.952) of 649 ± 0.45 kg/m3 and a mass density (343.11 K, 5000 kPa, x2 = 0.2594) of 686.9 ± 0.44 kg/m3. For the same molecule, the mass density (343.11 K, 5000 kPa, x2 = 0.952) was 650.27 ± 0.46 kg/m3, the mass density (343.11 K, 6000 kPa, x2 = 0.2594) was 687.93 ± 0.44 kg/m3 and the mass density (343.11 K, 6000 kPa, x2 = 0.952) was 651.49 ± 0.46 kg/m3. It also gave a mass density (343.11 K, 7000 kPa, x2 = 0.2594) of 688.92 ± 0.45 kg/m3, a mass density (343.11 K, 7000 kPa, x2 = 0.952) of 652.71 ± 0.47 kg/m3 and a mass density (343.11 K, 8000 kPa, x2 = 0.2594) of 689.92 ± 0.45 kg/m3. The mass density (343.11 K, 8000 kPa, x2 = 0.952) was 653.91 ± 0.48 kg/m3, the mass density (343.11 K, 9000 kPa, x2 = 0.2594) was 690.94 ± 0.46 kg/m3 and the mass density (343.11 K, 9000 kPa, x2 = 0.952) was 655.08 ± 0.48 kg/m3.

— the NIST ThermoML archive (doi:10.1016/j.jct.2011.08.016)
